Data on six molecules can be found in patent US6764829B2, “Nucleoside hydrolase and nucleoside phosphorylase detection kits, dipsticks and substrates” (Albert Einstein College of Medicine of Yeshiva University, priority 1996, dated 2004).

The target in series [1] is T1, AMP nucleosidase (Escherichia coli, UniProt P0AE12). The note with it: purine substrate; cited from earlier work.
Series [2] deals with T2, IAG-nucleoside hydrolase (Trypanosoma brucei, UniProt Q57ZL6).
T2 sequence (Q57ZL6 1-327): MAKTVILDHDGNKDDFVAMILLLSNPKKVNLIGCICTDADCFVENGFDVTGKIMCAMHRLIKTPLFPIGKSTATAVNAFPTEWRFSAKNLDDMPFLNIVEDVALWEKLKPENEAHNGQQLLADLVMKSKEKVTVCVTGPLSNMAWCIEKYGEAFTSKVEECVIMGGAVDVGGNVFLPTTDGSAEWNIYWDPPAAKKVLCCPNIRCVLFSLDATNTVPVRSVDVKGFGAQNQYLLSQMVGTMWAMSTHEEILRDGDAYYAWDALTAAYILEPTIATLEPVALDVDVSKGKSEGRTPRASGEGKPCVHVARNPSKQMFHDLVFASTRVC
The series can be described thus: Kinetic parameters with nitrophenylriboside and purine substrate (Table 1). Type of series: biochemical. From the text: (§1) In this Example kinetic parameters for different enzymes were compared using nitrophenylriboside or a purine substrate. […] The E. coli and bovine spleen enzymes tested were ineffective in hydrolysing the substrate. The striking ability of one of the protozoan parasite enzymes to hydrolyse the substrate provides the basis for an assay for the protozoan parasites (see Example 22).

Series [3] has as its target T3, IU-nucleoside hydrolase (Crithidia fasciculata, UniProt Q27546).
T3 sequence (Q27546 1-315): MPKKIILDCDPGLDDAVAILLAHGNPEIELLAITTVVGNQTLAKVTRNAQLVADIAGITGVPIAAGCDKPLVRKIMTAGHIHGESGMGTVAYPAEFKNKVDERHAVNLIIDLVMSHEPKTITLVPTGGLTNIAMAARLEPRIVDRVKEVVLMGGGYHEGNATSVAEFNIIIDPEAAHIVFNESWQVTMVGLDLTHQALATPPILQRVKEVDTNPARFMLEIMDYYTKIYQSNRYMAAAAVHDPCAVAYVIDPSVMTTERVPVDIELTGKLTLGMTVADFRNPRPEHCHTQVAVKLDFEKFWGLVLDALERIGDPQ
Described as above. Type of series: biochemical.
Source text: as §1

In series [4] the test system is GI-nucleoside hydrolase. The description is as above. Type of series: biochemical, Crithidia fasciculata.
Source text: as §1

Series [5] addresses T1, AMP nucleosidase. The experiment in a line: Kinetic parameters with nitrophenylriboside 5-phosphate and purine substrate (Table 1). The conditions noted are these: summary of Table 1. Type of series: biochemical, E coli.
Source text: as §1

The subject of series [6] is blood from mice infected with Trypanosoma cruzi. The experiment in a line: Rate of hydrolysis of nitrophenyl riboside with control or infected mouse blood. The conditions noted are these: for rate of hydrolysis: 0.24 mM substrate, 50 mM HEPES pH 8.0, 30° C., 400 nm. Type of series: biochemical. The protocol:
The utility of nitrophenylriboside as a substrate for detecting protozoan infections using the presence of nucleoside hydrolases was tested using blood from mice infected with Trypanosoma cruzi, the causitive agent of Chagas disease (Table 2). […] The values obtained from the assay from the infected mice were strikingly elevated above those of the uninfected controls.

Series [7] deals with T3, IU-nucleoside hydrolase. The experiment in a line: Comparison of β-D-ribofuranoside substrates with IU-nucleoside hydrolase (Table 3). Type of series: biochemical. The procedure: (§2) The enzymes used were highly purified samples from Crithidia fasciculata (IU-nucleoside hydrolase) and Trypanosoma brucei brucei (IAG-nucleoside hydrolase), available as stock solutions of approximately 20 mg protein/mL.
(§3) Each reaction was conducted in a quartz cuvette with a 1 cm path length, placed in the observation chamber of a UV spectrophotometer, and in a total reaction volume of 600 μL. The temperature was adjusted by use of a circulating water bath, set so that the cuvette temperature equilibrated to 30° C. in about 5 minutes.
(§4) The β-D-ribofuranoside substrates were dissolved in aqueous buffer: 50 mM CHES for reactions at pH 10, 50 mM HEPES for reactions at pH 8. […] For the remaining reactions catalysed by IAG hydrolase, a single substrate concentration of between 100 and 300 μM was used.
(§5) The absorbance of each reaction mixture was monitored at or near the absorption maximum for the phenolic aglycon (as shown in Table 3). Monitoring began 5-10 minutes before the enzyme was added to determine if the substrate was stable under the reaction conditions.
(§6) Data were fitted to the Michaelis-Menton equation using kaleidagraph, and the resulting kinetic parameters along with other relevant data are summarized in Table 3.

The target in series [8] is T2, IAG-nucleoside hydrolase. The experiment in a line: Comparison of β-D-ribofuranoside substrates with IAG-nucleoside hydrolase (Table 3). Type of series: biochemical. The note with it: for IAG NH rate: at 200 μM substrate. The procedure:
as §2, §3, §4, §5, §6

For series [9], the system named is Giardia intestinalis (Portland 1 strain). The series can be described thus: Hydrolysis of substrates by Giardia intestinalis supernatants. Type of series: biochemical. The note with it: 0.24 mM substrate, 50 mM HEPES pH 8. The protocol: Giardia intestinalis (Portland 1 strain) was grown for 2 days in TYI-33 medium supplemented with 5 mM arginine, harvested and washed. A suspension containing 2.91×10^8 cells of Giardia intestinalis in 1 mL of aqueous HEPES buffer (40 mM. pH 7) was mixed with 1 mL of aqueous HEPES buffer (40 mM, pH 7) containing 0.1 mM protease inhibitor E-64 and sonicated (Branson sonicator, duty cycle 40, output 2.5), for 2-3 min in ice. The suspension was then centrifuged in a Beckman microfuge for 10 mins at 4° C., and the supernatant decanted.
A second suspension of 2.91×10^8 cells of Giardia intestinalis in 1 mL of aqueous HEPES buffer (40 mM, pH 7) was mixed with 1 mL of 0.5% aqueous Triton X-100, left at 4° C. overnight, and the supernatant was decanted.
Aliquots (between 2 and 100 μL) of each of these supernatants were made up to a volume of 1 mL of water containing 50 mM HEPES buffer at pH 8, 0.24 mM 4-nitrophenyl β-D-ribofuranoside or 4-pyridyl β-D-ribofuranoside. The release of the aglycon was monitored by absorption spectrometry at 400 nm or 253 nm, respectively.
Protein was determined by Lowry method (ie Folin reaction).

In the next series the test system is T. vaginalis. The series can be described thus: Hydrolysis of substrates by T. vaginalis extract. Type of series: biochemical. The note with it: Triton X-100 extract; determined as in Example 24. The protocol: T. vaginalis was grown for 2 days in TYM medium, harvested, and washed. […] The ability of the extract to hydrolyse substrates was determined as in Example 24. For 4-nitrophenyl β-D-ribofuranoside, the activity was 165 nmoles.min^−1 per 10^8 cells, corresponding to an activity for the enzyme of 9 nmoles.min^−1.(mg protein)^−1. For 4-pyridyl β-D-ribofuranoside, the activity was 74 nmoles.min^−1 per […] corresponding to an activity for the enzyme of 4 nmoles.min^−1.(mg protein)^−1.

The target of series [10] is T4, Purine nucleoside phosphorylase (Bos taurus, UniProt P55859).
T4 sequence (P55859 1-289): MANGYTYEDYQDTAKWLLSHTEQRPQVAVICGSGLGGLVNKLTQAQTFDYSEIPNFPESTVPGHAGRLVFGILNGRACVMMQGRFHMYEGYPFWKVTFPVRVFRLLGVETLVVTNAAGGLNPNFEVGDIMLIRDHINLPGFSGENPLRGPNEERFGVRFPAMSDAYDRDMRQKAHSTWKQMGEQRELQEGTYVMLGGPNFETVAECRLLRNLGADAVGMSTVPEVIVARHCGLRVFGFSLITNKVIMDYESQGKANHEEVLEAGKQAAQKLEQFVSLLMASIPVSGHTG
The experiment in a line: Kinetic parameters (phosphorolysis) with nitrophenylriboside and purine substrate (Table 1). Type of series: biochemical, bovine. More on the design: The E. coli and bovine spleen enzymes tested; from tissue; host or cells: bovine spleen.
Source text: as §1

Series [11] is described as follows: Stability of substrate under the reaction conditions before enzyme was added. Type of series: physicochemical. The note with it: pH 10, 30° C., monitored 5-10 minutes before the enzyme was added. The procedure: as §5
The test system of series [12] is GI-nucleoside hydrolase. The conditions noted are these: purine substrate; cited from earlier work.
Series [13] has as its target T3, IU-nucleoside hydrolase. The conditions noted are these: purine substrate; cited from earlier work.
Series [14] addresses T2, IAG-nucleoside hydrolase. The conditions noted are these: purine substrate; cited from earlier work.
Series [15] concerns the target T4, Purine nucleoside phosphorylase. More on the design: bovine spleen enzymes tested; from tissue; host or cells: bovine spleen. The note with it: purine substrate; cited from earlier work.
Substrate in series [16]: O=[N+]([O-])c1ccc(O[C@@H]2O[C@H](CO)[C@@H](O)[C@H]2O)cc1
The experiment in a line: Kinetic parameters with nitrophenylriboside and purine substrate (Table 1). Type of series: biochemical, Trypanosoma brucei brucei. The conditions noted are these: other: nitrophenylriboside as substrate, pH 8.0 in 50 mM HEPES, 30° C.
Source text: as §1

Substrate in series [17]: O=[N+]([O-])c1ccc(O[C@@H]2O[C@H](CO)[C@@H](O)[C@H]2O)cc1
The experiment in a line: Comparison of β-D-ribofuranoside substrates with IAG-nucleoside hydrolase (Table 3). Type of series: biochemical, Trypanosoma brucei brucei. The conditions noted are these: other: At pH 10, 30.0 °C. The procedure: as §2, §3, §4, §5, §6

Substrate in series [18]: OC[C@H]1O[C@@H](Oc2ccncc2)[C@H](O)[C@@H]1O
The description is as above. Type of series: biochemical, Trypanosoma brucei brucei. The note with it: other: At pH 10, 30.0 °C. The procedure:
as §2, §3, §4, §5, §6

The mark [19] stands for this setting: kcat/Km for nitrophenylriboside to that for inosine.
[20] abbreviates: nitrophenylriboside as substrate, pH 8.0 in 50 mM HEPES, 30° C.
Setting [21] is: listed as 2-(5-nitropyridyl) riboside.

Where two headings read alike, the source gives them in different places.

T1 sequence (P0AE12 whole entry): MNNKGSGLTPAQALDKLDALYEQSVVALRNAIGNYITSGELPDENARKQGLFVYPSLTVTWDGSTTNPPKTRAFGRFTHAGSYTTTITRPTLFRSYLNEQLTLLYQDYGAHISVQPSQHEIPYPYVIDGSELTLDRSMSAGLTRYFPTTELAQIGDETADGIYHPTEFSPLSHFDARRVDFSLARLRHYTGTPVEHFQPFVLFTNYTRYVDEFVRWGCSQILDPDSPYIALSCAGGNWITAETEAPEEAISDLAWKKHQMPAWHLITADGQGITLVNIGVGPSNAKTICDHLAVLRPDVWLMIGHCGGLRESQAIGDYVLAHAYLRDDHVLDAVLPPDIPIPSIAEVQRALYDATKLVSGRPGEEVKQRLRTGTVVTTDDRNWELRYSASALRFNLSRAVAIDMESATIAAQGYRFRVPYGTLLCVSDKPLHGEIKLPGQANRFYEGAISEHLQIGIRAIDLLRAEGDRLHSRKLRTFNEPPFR

The Km is the substrate concentration at which the rate is half of its maximum. What is called kcat is the maximal rate divided by the concentration of active sites. With `Nc1ncnc2c1ncn2[C@@H]1O[C@H](COP(=O)(O)O)[C@@H](O)[C@H]1O` [AMP], at AMP nucleosidase [1], the Michaelis-Menten constant (Km) was 150 µM and the kcat was 27 s⁻¹.
Consider `O=[N+]([O-])c1ccc(O[C@@H]2O[C@H](CO)[C@@H](O)[C@H]2O)cc1` [Example 1, p-nitrophenyl β-D-ribofuranoside], for which the kcat/Km ratio on IAG-nucleoside hydrolase [2] (setting [19]) was 8 × 10^−4; at IU-nucleoside hydrolase [3] (setting [19]) it was 54; in the series with GI-nucleoside hydrolase [4] (kcat/Km for nitrophenylriboside to that for guanosine) it was 4 × 10^−5; in [10] (setting [19]) it was 1 × 10^−6. The “substrate quality in words” value on IAG-nucleoside hydrolase [2] (summary of Table 1) was “relatively poor”; on IU-nucleoside hydrolase [3] (summary of Table 1), “good substrate”; on AMP nucleosidase [5], “ineffective”; at IU-nucleoside hydrolase [7], “good substrates”; on IU-nucleoside hydrolase [7] (listed as p-nitrophenylriboside), “particularly good substrate”; in [10] (summary of Table 1), “ineffective”. Besides, the Km in the series on GI-nucleoside hydrolase [4] (setting [20]) was determined as 468 µM. Further, the kcat in the series with GI-nucleoside hydrolase [4] (setting [20]) amounted to 0.07 s⁻¹. Also, in [6] (blood lysate prepared from one microliter of infected blood), the “detection of nucleoside hydrolase in words” value is “readily detects the presence of the nucleoside hydrolase”. The rate of hydrolysis is recorded as 4.6 ± 0.5 (3) pmol/min/mg in series [6] (mouse blood infected, T cruzi var Brazil); 3.9 ± 0.5 (4) pmol/min/mg in [6] (mouse blood infected, T cruzi var Tulahuen); 0.7 ± 0.8 (11) pmol/min/mg in series [6] (uninfected control mouse blood). In addition, the “IAG NH rate” value on IAG-nucleoside hydrolase [8] (pH 10.0) came to 0.05 min⁻¹. Moreover, the activity per cells in series [9] was 470 nmoles.min^−1 per 10^8 cells; with T. vaginalis, 165 nmoles.min^−1 per 10^8 cells. For the same molecule, the “activity for the enzyme” value is 70 nmoles.min^−1.(mg protein)^−1 in series [9] (protein by Lowry method) and 9 nmoles.min^−1.(mg protein)^−1 in the series on T. vaginalis.
With `O=[N+]([O-])c1ccc(O[C@@H]2O[C@H](CO)[C@@H](O)[C@H]2O)nc1` [Example 13, 2-(5-nitropyridyl) β-D-ribofuranoside], the “substrate quality in words” value on IU-nucleoside hydrolase [7] is reported as “good substrates”; on IU-nucleoside hydrolase [7] (setting [21]), “lower activity”; at IAG-nucleoside hydrolase [8] it was “good substrates”; at IAG-nucleoside hydrolase [8] (setting [21]), “substantially greater activity”. Further, the “IU NH kcat” value at IU-nucleoside hydrolase [7] (At pH 10, 30° C.) amounted to 100 s⁻¹. For the same molecule, the Km on IU-nucleoside hydrolase [7] (At pH 10, 30° C., read-out: IU NH Km) was 122 µM. Also, the “IAG NH rate” value on IAG-nucleoside hydrolase [8] (pH 8.0) and on IAG-nucleoside hydrolase [8] (pH 10.0) was more than 100 min⁻¹ throughout. For the same molecule, in series [11], the “hydrolysis in the absence of enzyme” value is recorded as “hydrolysis observed in the absence of enzyme”.
As for `Nc1nc2c(ncn2[C@@H]2O[C@H](CO)[C@@H](O)[C@H]2O)c(=O)[nH]1` [guanosine], in the series with GI-nucleoside hydrolase [12], the Km was 77 µM and the kcat was 231 s⁻¹.
Regarding `OC[C@H]1O[C@@H](n2cnc3c(O)ncnc32)[C@H](O)[C@@H]1O` [inosine], the values for the kcat (at IU-nucleoside hydrolase [13]; at IAG-nucleoside hydrolase [14]; in [15]) were 28 s⁻¹, 34 s⁻¹ and 12 s⁻¹, respectively. The Km on IAG-nucleoside hydrolase [14] was 18 µM; in series [15], 19 µM.

B1: IAG-nucleoside hydrolase (Trypanosoma brucei brucei TREU927) (protein)
chain: T2 sequence (Q57ZL6 1-327)
As usually defined, the kcat/Km is the turnover number divided by the Michaelis constant. Consider B1, for which, in series [16], the Km came to 560 µM, the kcat worked out at 0.82 s⁻¹ and the kcat/Km is 1500 M⁻¹ s⁻¹. Moreover, in series [17], the Km amounted to 529 µM and the catalytic constant (kcat) was determined as 0.00317 s⁻¹. Moreover, in series [18], the Km was 306 µM and the kcat came to 12 s⁻¹.
